In the supplement of paper PMC8967900:

tested on: REH; assay: selective drug sensitivity score (sDSS, relative to normal bone marrow) (sDSS (score)); higher = more potent and effective on the cell line relative to normal bone marrow cells; settings: 72 h
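Further: ALL cell lines in 384-well plates, five doses spanning 10,000-fold, each plate scaled between vehicle and 100 µmol/L benzalkonium chloride controls, sDSS an adapted area-under-curve metric.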

Structure (SMILES)	selective drug sensitivity score
O=c1sn(-c2cccc3ccccc23)c(=O)n1Cc1ccccc1 [Tideglusib] (top concentration 3000 nM)	0.4
COc1cc2nccc(Oc3ccc(NC(=O)Nc4cc(C)on4)c(Cl)c3)c2cc1OC [Tivozanib] (top concentration 10000 nM)	0.36
Cc1cc(Nc2cc(N3CCN(C)CC3)nc(Sc3ccc(NC(=O)C4CC4)cc3)n2)n[nH]1 [Tozasertib] (top concentration 10000 nM)	21.2
CC1=C(/C=C/C(C)=C/C=C/C(C)=C/C(=O)O)C(C)(C)CCC1 [Tretinoin] (top concentration 10000 nM)	-1.8
COC(=O)c1ccc2c(c1)[nH]c1ncnc(NCCCN3CCCCC3)c12 [UM729] (top concentration 10000 nM)	0.24
COc1cc2c(NC3CCN(C(C)C)CC3)nc(N3CCC(F)(F)CC3)nc2cc1OCCCN1CCCC1 [UNC0642] (top concentration 10000 nM)	-0.14
O=C(c1ccc(C(=O)N2CCC(N3CCCC3)CC2)c(Nc2ccccc2)c1)N1CCC(N2CCCC2)CC1 [UNC1215] (top concentration 10000 nM)	0.5
CCCC(CCC)C(=O)O [Valproic_acid] (top concentration 1000000 nM)	0
Clc1ccc(Nc2nnc(Cc3ccncc3)c3ccccc23)cc1 [Vatalanib] (top concentration 10000 nM)	0
CCCS(=O)(=O)Nc1ccc(F)c(C(=O)c2c[nH]c3ncc(-c4ccc(Cl)cc4)cc23)c1F [Vemurafenib] (top concentration 10000 nM)	4.86

tested on: SEM cells; assay: as above; settings: 72 h

Structure (SMILES)	selective drug sensitivity score
NCCNc1ccc(NCCN)c2c1C(=O)c1ccncc1C2=O [Pixantrone] (top concentration 10000 nM)	-1.36
c1cc(CN2CCCNCCNCCCNCC2)ccc1CN1CCCNCCNCCCNCC1 [Plerixafor] (top concentration 10000 nM)	0
O=C(c1ccc(OCCN2CCCCC2)cc1)c1c(-c2ccc(O)cc2)sc2cc(O)ccc12 [Raloxifene] (top concentration 10000 nM)	1.62
CN(C)C(=O)c1cc2cnc(Nc3ccc(N4CCNCC4)cn3)nc2n1C1CCCC1 [Ribociclib] (top concentration 10000 nM)	2.28
CN1CCN(CCOc2cc(OC3CCOCC3)c3c(Nc4c(Cl)ccc5c4OCO5)ncnc3c2)CC1 [Saracatinib] (top concentration 10000 nM)	0.08
C=CC(=O)Nc1cccc(Nc2nc(Nc3ccc(OCCOC)cc3)ncc2F)c1 [Spebrutinib] (top concentration 1000 nM)	3.74
C[C@@H]1CN(Cc2ccc(F)cc2)[C@@H](C)CN1C(=O)c1cc2c(C(=O)C(=O)N(C)C)cn(C)c2cc1Cl [Talmapimod] (top concentration 10000 nM)	0.4
C[C@@H](C(=O)O)c1ccc(-c2ccccc2)c(F)c1 [Tarenflurbil] (top concentration 10000 nM)	-0.16
CNC(=O)c1cc(COc2nnc(Nc3ccc(Cl)cc3)c3ccoc23)ccn1 [Telatinib] (top concentration 10000 nM)	0.2
O=c1sn(-c2cccc3ccccc23)c(=O)n1Cc1ccccc1 [Tideglusib] (top concentration 3000 nM)	-0.3
COc1cc2nccc(Oc3ccc(NC(=O)Nc4cc(C)on4)c(Cl)c3)c2cc1OC [Tivozanib] (top concentration 10000 nM)	4.76
Cc1cc(Nc2cc(N3CCN(C)CC3)nc(Sc3ccc(NC(=O)C4CC4)cc3)n2)n[nH]1 [Tozasertib] (top concentration 10000 nM)	22.3
CC1=C(/C=C/C(C)=C/C=C/C(C)=C/C(=O)O)C(C)(C)CCC1 [Tretinoin] (top concentration 10000 nM)	0
COC(=O)c1ccc2c(c1)[nH]c1ncnc(NCCCN3CCCCC3)c12 [UM729] (top concentration 10000 nM)	2.14
COc1cc2c(NC3CCN(C(C)C)CC3)nc(N3CCC(F)(F)CC3)nc2cc1OCCCN1CCCC1 [UNC0642] (top concentration 10000 nM)	-0.14
O=C(c1ccc(C(=O)N2CCC(N3CCCC3)CC2)c(Nc2ccccc2)c1)N1CCC(N2CCCC2)CC1 [UNC1215] (top concentration 10000 nM)	0
CCCC(CCC)C(=O)O [Valproic_acid] (top concentration 1000000 nM)	0
Clc1ccc(Nc2nnc(Cc3ccncc3)c3ccccc23)cc1 [Vatalanib] (top concentration 10000 nM)	0
CCCS(=O)(=O)Nc1ccc(F)c(C(=O)c2c[nH]c3ncc(-c4ccc(Cl)cc4)cc23)c1F [Vemurafenib] (top concentration 10000 nM)	3.26

tested on: SUP-B15; assay: as above; settings: 72 h

Structure (SMILES)	selective drug sensitivity score
NCCNc1ccc(NCCN)c2c1C(=O)c1ccncc1C2=O [Pixantrone] (top concentration 10000 nM)	-2.76
c1cc(CN2CCCNCCNCCCNCC2)ccc1CN1CCCNCCNCCCNCC1 [Plerixafor] (top concentration 10000 nM)	0
O=C(c1ccc(OCCN2CCCCC2)cc1)c1c(-c2ccc(O)cc2)sc2cc(O)ccc12 [Raloxifene] (top concentration 10000 nM)	-2.18
CN(C)C(=O)c1cc2cnc(Nc3ccc(N4CCNCC4)cn3)nc2n1C1CCCC1 [Ribociclib] (top concentration 10000 nM)	1.58
CN1CCN(CCOc2cc(OC3CCOCC3)c3c(Nc4c(Cl)ccc5c4OCO5)ncnc3c2)CC1 [Saracatinib] (top concentration 10000 nM)	17
C=CC(=O)Nc1cccc(Nc2nc(Nc3ccc(OCCOC)cc3)ncc2F)c1 [Spebrutinib] (top concentration 1000 nM)	0.04
C[C@@H]1CN(Cc2ccc(F)cc2)[C@@H](C)CN1C(=O)c1cc2c(C(=O)C(=O)N(C)C)cn(C)c2cc1Cl [Talmapimod] (top concentration 10000 nM)	2.8
C[C@@H](C(=O)O)c1ccc(-c2ccccc2)c(F)c1 [Tarenflurbil] (top concentration 10000 nM)	0.44
CNC(=O)c1cc(COc2nnc(Nc3ccc(Cl)cc3)c3ccoc23)ccn1 [Telatinib] (top concentration 10000 nM)	0
O=c1sn(-c2cccc3ccccc23)c(=O)n1Cc1ccccc1 [Tideglusib] (top concentration 3000 nM)	-0.3
COc1cc2nccc(Oc3ccc(NC(=O)Nc4cc(C)on4)c(Cl)c3)c2cc1OC [Tivozanib] (top concentration 10000 nM)	21.7
Cc1cc(Nc2cc(N3CCN(C)CC3)nc(Sc3ccc(NC(=O)C4CC4)cc3)n2)n[nH]1 [Tozasertib] (top concentration 10000 nM)	19.1
CC1=C(/C=C/C(C)=C/C=C/C(C)=C/C(=O)O)C(C)(C)CCC1 [Tretinoin] (top concentration 10000 nM)	-2.4
COC(=O)c1ccc2c(c1)[nH]c1ncnc(NCCCN3CCCCC3)c12 [UM729] (top concentration 10000 nM)	2.24
COc1cc2c(NC3CCN(C(C)C)CC3)nc(N3CCC(F)(F)CC3)nc2cc1OCCCN1CCCC1 [UNC0642] (top concentration 10000 nM)	3.36
O=C(c1ccc(C(=O)N2CCC(N3CCCC3)CC2)c(Nc2ccccc2)c1)N1CCC(N2CCCC2)CC1 [UNC1215] (top concentration 10000 nM)	0
CCCC(CCC)C(=O)O [Valproic_acid] (top concentration 1000000 nM)	0
Clc1ccc(Nc2nnc(Cc3ccncc3)c3ccccc23)cc1 [Vatalanib] (top concentration 10000 nM)	0
CCCS(=O)(=O)Nc1ccc(F)c(C(=O)c2c[nH]c3ncc(-c4ccc(Cl)cc4)cc23)c1F [Vemurafenib] (top concentration 10000 nM)	2.26
